Laboratory results: patent publication US9533961B2, “Molecules having certain pesticidal utilities, and intermediates, compositions, and processes related thereto” (priority 2014, dated 2017)
Like-named read-outs stand apart in the source and are kept apart here.

Legend:
Format in all cases: in vivo
[1] = test system: Beet Armyworm (Spodoptera exigua, LAPHEG) ("BAW"); assay: Bioassay on Beet Armyworm (BAW), 128-well diet tray assay; conditions: 168 h, read-out: BAW % Control (or Mortality) rating
Method: (§1) Certain molecules disclosed in this document were tested against BAW and CEW using procedures described in the following examples. In the reporting of the results, the “BAW & CL Rating Table” was used (See Table Section).
Bioassays on BAW were conducted using a 128-well diet tray assay. one to five second instar BAW larvae were placed in each well (3 mL) of the diet tray that had been previously filled with 1 mL of artificial diet to which 50 μg/cm^2 of the test compound (dissolved in 50 μL of 90:10 acetone-water mixture) had been applied (to each of eight wells) and then allowed to dry. Trays were covered with a clear self-adhesive cover and held at 25° C., 14:10 light-dark for five to seven days. Percent mortality was recorded for the larvae in each well; activity in the eight wells was then averaged. The results are indicated in the table entitled “Table ABC: Biological Results” (See Table Section).

[2] = test system: Cabbage Looper (Trichoplusia ni, TRIPNI) ("CL"); assay: Bioassay on Cabbage Looper (CL), 128-well diet tray assay; conditions: 168 h, read-out: CL % Control (or Mortality) rating
Method: as §1
Bioassays on CL were conducted using a 128-well diet tray assay. one to five second instar CL larvae were placed in each well (3 mL) of the diet tray that had been previously filled with 1 mL of artificial diet to which 50 μg/cm^2 of the test compound (dissolved in 50 μL of 90:10 acetone-water mixture) had been applied (to each of eight wells) and then allowed to dry. Trays were covered with a clear self-adhesive cover and held at 25° C., 14:10 light-dark for five to seven days. Percent mortality was recorded for the larvae in each well; activity in the eight wells was then averaged. The results are indicated in the table entitled “Table ABC: Biological Results” (See Table Section).

[3] = test system: Green Peach Aphid (Myzus persicae, MYZUPE) ("GPA"); assay: Bioassay on Green Peach Aphid (GPA), foliar spray on cabbage seedlings; conditions: foliar, 72 h, read-out: GPA % Control (or Mortality) rating
Method: Certain molecules disclosed in this document were tested against GPA using procedures described in the following example. In the reporting of the results, the “GPA Rating Table” was used (See Table Section).
Cabbage seedlings grown in 3-inch pots, with 2-3 small (3-5 cm) true leaves, were used as test substrate. The seedlings were infested with 20-50 GPA (wingless adult and nymph stages) one day prior to chemical application. Four pots with individual seedlings were used for each treatment. Test compounds (2 mg) were dissolved in 2 mL of acetone/methanol (1:1) solvent, forming stock solutions of 1000 ppm test compound. The stock solutions were diluted 5× with 0.025% Tween 20 in water to obtain the solution at 200 ppm test compound. A hand-held aspirator-type sprayer was used for spraying a solution to both sides of […] leaves until runoff. Reference plants (solvent check) were sprayed with the diluent only containing 20% by volume of acetone/methanol (1:1) solvent. Treated plants were held in a holding room for three days at approximately 25° C. and ambient relative humidity (RH) prior to grading. Evaluation was conducted by counting the number of live aphids per plant under a microscope. Percent Control was measured by using Abbott's correction formula (W. S. Abbott, “A Method of Computing the Effectiveness of an Insecticide” J. Econ. Entomol. 18 (1925), pp. 265-267) as follows. Corrected % Control=100*(X−Y)/X • where • X=No. of live aphids on solvent check plants and • Y=No. of live aphids on treated plants

[4] = test system: Yellow Fever Mosquito (Aedes aegypti, AEDSAE) ("YFM"); assay: Bioassay on Yellow Fever Mosquito (YFM), 96-well plate larval assay; conditions: about 1 day-old larvae, from 4000 ppm master plate, scored on mortality after 3 days
Method: Certain molecules disclosed in this document were tested against YFM using procedures described in the following paragraph. In the reporting of the results, the “YFM Rating Table” was used (See Table Section).
Master plates containing 400 μg of a molecule dissolved in 100 μL of dimethyl sulfoxide (DMSO) (equivalent to a 4000 ppm solution) are used. A master plate of assembled molecules contains 15 μL per well. To this plate, 135 μL of a 90:10 water:acetone mixture is added to each well. A robot (Biomek® NXP Laboratory Automation Workstation) is programmed to dispense 15 μL aspirations from the master plate into an empty 96-well shallow plate (“daughter” plate). There are 6 reps (“daughter” plates) created per master. The created daughter plates are then immediately infested with YFM larvae.
The day before plates are to be treated, mosquito eggs are placed in Millipore water containing liver powder to begin hatching (4 g. into 400 mL). After the daughter plates are created using the robot, they are infested with 220 μL of the liver powder/larval mosquito mixture (about 1 day-old larvae). After plates are infested with mosquito larvae, a non-evaporative lid is used to cover the plate to reduce drying. Plates are held at room temperature for 3 days prior to grading. After 3 days, each well is observed and scored based on mortality.

[5] = 50 μg/cm^2 on artificial diet, second instar larvae, five to seven days, 25° C., average of eight wells

Row | SMILES | mortality at 50 µg/cm2 [1] | mortality at 50 µg/cm2 [2] | mortality at 200 ppm [3] | mortality at 50 µg/cm2 [1, 5] | YFM % Control (or Mortality) rating [4]
1 | Cc1cccc(C)c1Nc1ccccc1C(=O)Nc1ccc(-c2ncn(-c3ccc(C(F)(F)F)cc3)n2)cc1 [F2, 2-((2,6-Dimethylphenyl)amino)-N-(4-(1-(4-(trifluoromethyl)phenyl)-1H-1,2,4-triazol-3-yl)phenyl)benzamide] | 0% | 0% | 0 to 80% | – | –
2 | CCOc1ccccc1Oc1ccccc1C(=O)Nc1ccc(-c2ncn(-c3ccc(OC(F)(F)F)cc3)n2)cc1 [F17, 2-(2-Ethoxyphenoxy)-N-(4-(1-(4-(trifluoromethoxy)phenyl)-1H-1,2,4-triazol-3-yl)phenyl)benzamide] | – | 0% | – | 0 to 50% | D (No activity noticed in this bioassay)
3 | Cc1ccc(C(C)C)c(C(=O)NCc2ccc(-c3ncn(-c4ccc(OC(F)(F)F)cc4)n3)cc2)c1 [F39, 2-Isopropyl-5-methyl-N-(4-(1-(4-(trifluoromethoxy)phenyl)-1H-1,2,4-triazol-3-yl)benzyl)benzamide] | – | 0% | – | 0% | D (No activity noticed in this bioassay)
4 | CC(C)c1cccc(C(=O)NCc2ccc(-c3ncn(-c4ccc(OC(F)(F)F)cc4)n3)cc2)c1 [F28, 3-Isopropyl-N-(4-(1-(4-(trifluoromethoxy)phenyl)-1H-1,2,4-triazol-3-yl)benzyl)benzamide] | – | 0% | – | 50 to 100% | D (No activity noticed in this bioassay)
5 | COc1cccc(C(=O)Nc2ccc(-c3ncn(-c4ccc(OC(F)(F)F)cc4)n3)cc2)c1 [F13, 3-Methoxy-N-(4-(1-(4-(trifluoromethoxy)phenyl)-1H-1,2,4-triazol-3-yl)phenyl)benzamide] | – | 50 to 100% | – | 50 to 100% | B (More than 0 - Less than 80)
6 | CC(C)c1ccccc1C(=O)NCc1ccc(-c2ncn(-c3ccc(OC(F)(F)F)cc3)n2)cc1 [F31, 2-Isopropyl-N-(4-(1-(4-(trifluoromethoxy)phenyl)-1H-1,2,4-triazol-3-yl)benzyl)benzamide] | – | 0% | – | 0% | D (No activity noticed in this bioassay)
7 | COc1ccc(-c2ccccc2C(=O)NCc2ccc(-c3ncn(-c4ccc(OC(F)(F)F)cc4)n3)cc2)c(C)c1 [F38, 4′-Methoxy-2′-methyl-N-(4-(1-(4-(trifluoromethoxy)phenyl)-1H-1,2,4-triazol-3-yl)benzyl)biphenyl-2-carboxamide] | – | 0% | – | 0% | D (No activity noticed in this bioassay)
8 | CC(C)COc1cccc(C(=O)Nc2ccc(-c3ncn(-c4ccc(OC(F)(F)F)cc4)n3)cc2)c1 [F19, 3-Isobutoxy-N-(4-(1-(4-(trifluoromethoxy)phenyl)-1H-1,2,4-triazol-3-yl)phenyl)benzamide] | – | 50 to 100% | – | 0% | D (No activity noticed in this bioassay)
9 | O=C(NCc1ccc(-c2ncn(-c3ccc(OC(F)(F)F)cc3)n2)cc1)c1ccccc1 [F32, N-(4-(1-(4-(trifluoromethoxy)phenyl)-1H-1,2,4-triazol-3-yl)benzyl)benzamide] | – | 0% | – | 0% | D (No activity noticed in this bioassay)
10 | CC(C)c1cccc(C(=O)Nc2ccc(-c3ncn(-c4ccc(OC(F)(F)C(F)(F)F)cc4)n3)cc2)c1 [F16, 3-Isopropyl-N-(4-(1-(4-(perfluoroethoxy)phenyl)-1H-1,2,4-triazol-3-yl)phenyl)benzamide] | – | 50 to 100% | – | 0% | D (No activity noticed in this bioassay)
11 | COc1ccccc1C(=O)Nc1ccc(-c2ncn(-c3ccc(OC(F)(F)F)cc3)n2)cc1 [F11, 2-Methoxy-N-(4-(1-(4-(trifluoromethoxy)phenyl)-1H-1,2,4-triazol-3-yl)phenyl)benzamide] | – | 0% | – | 50 to 100% | D (No activity noticed in this bioassay)
12 | COc1ccccc1C(=O)Nc1ccc(-c2ncn(-c3ccc(OC(F)(F)C(F)(F)F)cc3)n2)cc1 [F12, 2-Methoxy-N-(4-(1-(4-(perfluoroethoxy)phenyl)-1H-1,2,4-triazol-3-yl)phenyl)benzamide] | – | 50 to 100% | – | 0% | D (No activity noticed in this bioassay)
13 | O=C(Nc1ccc(-c2ncn(-c3ccc(OC(F)(F)C(F)(F)F)cc3)n2)cc1)c1ccccc1Oc1ccccc1 [F8, N-(4-(1-(4-(Perfluoroethoxy)phenyl)-1H-1,2,4-triazol-3-yl)phenyl)-2-phenoxybenzamide] | – | 0% | – | 0% | D (No activity noticed in this bioassay)
14 | COc1ccc(C(=O)Nc2ccc(-c3ncn(-c4ccc(OC(F)(F)F)cc4)n3)cc2)cc1 [F26, 4-Methoxy-N-(4-(1-(4-(trifluoromethoxy)phenyl)-1H-1,2,4-triazol-3-yl)phenyl)benzamide] | – | 50 to 100% | – | 50 to 100% | D (No activity noticed in this bioassay)
15 | Cc1ccc(C)c(-c2ccccc2C(=O)NCc2ccc(-c3ncn(-c4ccc(OC(F)(F)F)cc4)n3)cc2)c1 [F35, 2′,5′-Dimethyl-N-(4-(1-(4-(trifluoromethoxy)phenyl)-1H-1,2,4-triazol-3-yl)benzyl)biphenyl-2-carboxamide] | – | 50 to 100% | – | 0 to 50% | B (More than 0 - Less than 80)
16 | Cc1ccccc1-c1ccccc1C(=O)NCc1ccc(-c2ncn(-c3ccc(OC(F)(F)F)cc3)n2)cc1 [F30, 2′-Methyl-N-(4-(1-(4-(trifluoromethoxy)phenyl)-1H-1,2,4-triazol-3-yl)benzyl)biphenyl-2-carboxamide] | – | 50 to 100% | – | 0 to 50% | B (More than 0 - Less than 80)
17 | O=C(Nc1ccc(-c2ncn(-c3ccc(OC(F)(F)C(F)(F)F)cc3)n2)cc1)c1ccc(Oc2ccccc2)cc1 [F10, N-(4-(1-(4-(perfluoroethoxy)phenyl)-1H-1,2,4-triazol-3-yl)phenyl)-4-phenoxybenzamide] | – | 0% | – | 0% | D (No activity noticed in this bioassay)
18 | CC(C)c1cccc(C(=O)Nc2ccc(-c3ncn(-c4ccc(C(F)(F)F)cc4)n3)cc2)c1 [F24, 3-Isopropyl-N-(4-(1-(4-(trifluoromethyl)phenyl)-1H-1,2,4-triazol-3-yl)phenyl)benzamide] | – | 50 to 100% | – | 0% | D (No activity noticed in this bioassay)
